In brackets after ≈: the same amount, converted by molar mass.

The test system of series [1] is Escherichia coli. In words: Antibacterial activity against Escherichia coli assessed as zone of inhibition. It is filed as functional.
The subject of series [2] is Bacillus subtilis. The series is described as follows: Antibacterial activity against Bacillus subtilis assessed as zone of inhibition. It is filed as functional.
Series [3] has as its system Aspergillus niger. In words: Antifungal activity against Aspergillus niger. It is filed as functional.
Series [4] has as its system Aspergillus clavatus. In words: Antifungal activity against Aspergillus clavatus. It is filed as functional.
The subject of series [5] is Mus musculus. The series is described as follows: Antiinflammatory activity in mouse assessed as inhibition of paw edema after 4 hrs. It is filed as functional. Details: scale not given: the % may be the effect or the level left.
Series [6] has as its system Aspergillus fumigatus. The series is described as follows: Antifungal activity against Aspergillus fumigatus. It is filed as functional.
Series [7] relates to Mus musculus. In words: Antiinflammatory activity in mouse assessed as inhibition of paw edema after 24 hrs. It is filed as functional. Details: scale not given: the % may be the effect or the level left.
Series [8] deals with CHO-K1. The series is described as follows: Cytotoxicity against CHO-K1 cells by MTT assay. It is filed as toxicity, cell-based, Cricetulus griseus. Also noted: concentration or dose not given beside the values. The note with it: chinese hamster. In general terms: Formazan colour is commonly taken as a measure of viable cells.
For series [9], the system named is Fusarium graminearum. The series is described as follows: Antifungal activity against Gibberrella-zeave assessed as inhibition of fungal growth at 50 ug/ml. It is filed as functional. Details: scale not given: the % may be the effect or the level left. The note with it: dose 50 µg/ml.
Series [10] concerns Alternaria solani. The series is described as follows: Antifungal activity against Alternaria solani assessed as inhibition of fungal growth at 50 ug/ml. It is filed as functional. Also noted: scale not given: the % may be the effect or the level left. The note with it: dose 50 µg/ml.
Series [11] has as its system Phomopsis asparagi. In words: Antifungal activity against Phoma asparagi assessed as inhibition of fungal growth at 50 ug/ml. It is filed as functional. Also noted: scale not given: the % may be the effect or the level left. The conditions noted are these: dose 50 µg/ml.
Series [12] concerns Mycosphaerella arachidis. The series is described as follows: Antifungal activity against Cercospora arachidicola assessed as inhibition of fungal growth at 50 ug/ml. It is filed as functional. Details: scale not given: the % may be the effect or the level left. The conditions noted are these: dose 50 µg/ml.
Series [13] concerns Brassica rapa subsp. oleifera. The series is described as follows: Antifungal activity against Brassica campestris assessed as inhibition of fungal growth at 100 ug/ml by cup plate diffusion method. Details: scale not given: the % may be the effect or the level left. It is filed as functional. The conditions noted are these: dose 100 µg/ml.
For series [14], the system named is Brassica rapa subsp. oleifera. In words: Antifungal activity against Brassica campestris assessed as inhibition of fungal growth at 10 ug/ml by cup plate diffusion method. It is filed as functional. Details: scale not given: the % may be the effect or the level left. The conditions noted are these: dose 10 µg/ml.
In series [15] the target is T1, Prostaglandin G/H synthase 1 (Ovis aries, UniProt P05979).
T1 sequence (P05979 whole entry): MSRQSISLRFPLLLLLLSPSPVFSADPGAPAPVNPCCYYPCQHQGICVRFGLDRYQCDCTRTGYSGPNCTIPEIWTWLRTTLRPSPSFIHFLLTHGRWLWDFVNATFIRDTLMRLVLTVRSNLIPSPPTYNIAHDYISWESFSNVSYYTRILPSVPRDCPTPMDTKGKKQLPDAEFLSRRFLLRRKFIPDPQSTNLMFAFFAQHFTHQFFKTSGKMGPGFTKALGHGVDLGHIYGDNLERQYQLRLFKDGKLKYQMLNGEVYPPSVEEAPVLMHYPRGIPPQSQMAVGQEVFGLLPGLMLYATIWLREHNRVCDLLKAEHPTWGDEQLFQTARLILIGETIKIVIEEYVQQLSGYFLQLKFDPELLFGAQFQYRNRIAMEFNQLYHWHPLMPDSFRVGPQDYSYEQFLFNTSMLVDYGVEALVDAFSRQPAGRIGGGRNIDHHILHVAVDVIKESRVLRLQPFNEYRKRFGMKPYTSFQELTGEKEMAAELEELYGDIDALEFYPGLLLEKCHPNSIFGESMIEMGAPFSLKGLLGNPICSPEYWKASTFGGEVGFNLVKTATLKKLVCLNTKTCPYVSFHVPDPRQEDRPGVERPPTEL
The series is described as follows: Inhibition of ovine COX-1.

Series [16] in a line: Inhibition of soybean 15-LOX. Also noted: species or system Glycine max.
Series [17] deals with Rattus norvegicus. The series is described as follows: Antiinflammatory activity in rat assessed as inhibition of carrageenan induced paw edema. It is filed as functional. (In general: Carrageenan injected into the paw causes an acute inflammation.)
The subject of series [18] is Rattus norvegicus. In words: Antiinflammatory activity in rat assessed as inhibition of carrageenan induced paw edema at 50 mg/kg. It is filed as functional. Details: scale not given: the % may be the effect or the level left.
Series [19] has as its system RAW264.7. The series is described as follows: Antiinflammatory activity in mouse RAW264.7 cells assessed as decrease in IL-6 secretion. It is filed as functional. Details: scale not given: the % may be the effect or the level left.
Series [20] relates to RAW264.7. The series is described as follows: Antiinflammatory activity in mouse RAW264.7 cells assessed as decrease in TNFalpha secretion. It is filed as functional. Details: scale not given: the % may be the effect or the level left.
In series [21] the test system is Staphylococcus aureus. The series is described as follows: Antibacterial activity against Staphylococcus aureus assessed as zone of inhibition. It is filed as functional.
The test system of series [22] is Pseudomonas aeruginosa. In words: Antibacterial activity against Pseudomonas aeruginosa assessed as zone of inhibition. It is filed as functional.
In series [23] the test system is Bacillus subtilis. In words: Antibacterial activity against Bacillus subtilis. It is filed as functional.
The subject of series [24] is Staphylococcus aureus. In words: Antibacterial activity against Staphylococcus aureus. It is filed as functional.
Series [25] relates to Escherichia coli. The series is described as follows: Antibacterial activity against Escherichia coli. It is filed as functional.
In series [26] the test system is Pseudomonas aeruginosa. In words: Antibacterial activity against Pseudomonas aeruginosa. It is filed as functional.
The test system of series [27] is Penicillium chrysogenum. The series is described as follows: Antifungal activity against Penicillium chrysogenum. It is filed as functional.
The test system of series [28] is Fusarium oxysporum. In words: Antifungal activity against Fusarium oxysporum. It is filed as functional.
Series [29] concerns Escherichia coli. The series is described as follows: Antibacterial activity against Escherichia coli assessed as zone of inhibition at 5 mg/ml. It is filed as functional. The note with it: read-out: IZ.
In series [30] the test system is Candida albicans. The series is described as follows: Antifungal activity against Candida albicans. It is filed as functional.
In series [31] the test system is Geotrichum candidum. In words: Antifungal activity against Geotrichum candidum assessed as zone of inhibition. It is filed as functional.
Series [32] deals with Staphylococcus epidermidis. The series is described as follows: Antibacterial activity against Staphylococcus epidermidis assessed as zone of inhibition. It is filed as functional.
Series [33] deals with Klebsiella pneumoniae. The series is described as follows: Antibacterial activity against Klebsiella pneumoniae assessed as zone of inhibition. It is filed as functional.
For series [34], the system named is Salmonella typhimurium. In words: Antibacterial activity against Salmonella typhimurium assessed as zone of inhibition. It is filed as functional, Salmonella enterica subsp. enterica serovar Typhimurium.
The test system of series [35] is Aspergillus clavatus. In words: Antifungal activity against Aspergillus clavatus assessed as zone of inhibition. It is filed as functional.
Series [36] relates to Candida tropicalis. In words: Antifungal activity against Candida tropicalis assessed as zone of inhibition. It is filed as functional.

As to `Cc1ccc(-n2cnc3c(cnn3-c3cc(C)nc4c(C#N)cnn34)c2=O)cc1`, the “inhibition zone (IZ)” value stood at 12.2 mm in series [1] and 14 mm in series [2]. In addition, the MIC in series [3] and in series [4] was 10 µg/mL (≈ 26.2 µM) each time.

Regarding `CC(C)Cc1ccc(C(C)C(=O)O)cc1` (configuration not stated) [IBUPROFEN], the Activity in series [5] is reported as 66.67%.

Take `COc1ccc(Nc2nn3c(N)c(C#N)c(-c4ccccc4)nc3c2C(N)=O)cc1`: the MIC (commonly the lowest concentration found to suppress growth) in series [6] turned out to be 15.6 µg/mL (≈ 39.1 µM).

On to `CC(=O)c1cnc2c(C(=O)Nc3c(C)n(C)n(-c4ccccc4)c3=O)cnn2c1C`, for which the values for the Activity in series [7] and in [8] were 16.57% and 72.46%, respectively.

As for `Cc1ccn2ncc(C#N)c2n1`, the Activity in series [9] is 36.4%; in series [10], 45.1%; in series [11], 28.7%; in series [12], 39.6%; in [13], 65.8%; in series [14], 40.3%.

As for `COc1ccnc(Nc2nn3c(SC)c(C#N)c(O)nc3c2C#N)c1`, the IC50 (as a rule, the midpoint of a concentration-inhibition curve) stood at 12.6 µM in series [15] and 18.4 µM in series [16]. The ED50 – broadly, the dose that gives a 50% effect, or the effect in half of the subjects – in series [17] is 35 mg/kg. For the same compound, the figures for the Activity in series [18], in [19] and in [20] were 46%, 80% and 89%, respectively.

As for `COc1ccc(Nc2nn3c(-c4ccccc4)cc(-c4ccccc4)nc3c2C(N)=O)cc1`, the “inhibition zone (IZ)” value in [21] stood at 9 mm; in [1] it was 13 mm; in [2], 12 mm; in series [22], 10 mm. In addition, the MIC was 3.9 µg/mL (≈ 8.96 µM) in [23]; 7.81 µg/mL (≈ 17.9 µM) in series [24]; 3.9 µg/mL (≈ 8.96 µM) in series [25]; 15.6 µg/mL (≈ 35.9 µM) in [26]; 15.6 µg/mL (≈ 35.9 µM) in [27]; 7.81 µg/mL (≈ 17.9 µM) in series [28].

Turning to `Nc1nc2c(/N=N/c3ccc(F)cc3)c(N)nn2c(N)c1/N=N/c1ccc(F)cc1`, in series [29], the zone of inhibition at 5000 µg/mL was 10 mm.

As to `NC(=O)c1c(Nc2ccccc2)nn2c(-c3ccccc3)cc(-c3ccccc3)nc12`, the MIC in series [30] was found to be 15.6 µg/mL (≈ 38.5 µM).

`Nc1nn2c(-c3ccc(S(=O)(=O)c4ccccc4)cc3)ccnc2c1/N=N/c1ccccc1Cl`: the “inhibition zone (IZ)” value in series [1] was determined as 25.7 mm; in series [31], 25.2 mm; in [32], 22.6 mm; in series [33] it was 26.6 mm; in series [34], 26.2 mm.

For the compound `Cc1nc2c(c(C)nc3c(C#N)cnn32)c2c1CCO2`, the “inhibition zone (IZ)” value worked out at 16.4 mm in [1], 14.1 mm in series [2] and 17.7 mm in series [35].

`COc1ccc(Nc2nn3c(N)c(C#N)c(-c4ccc(F)cc4)nc3c2C(N)=O)cc1` gave an MIC in [30] of 15.6 µg/mL (≈ 37.4 µM).

For `Cc1cc(NN2C(=O)c3ccccc3C2=O)n2ncc(C#N)c2n1`, the “inhibition zone (IZ)” value in series [36] is 17.4 mm.

The record behind these values is ChEMBL document CHEMBL5241120, “Insights into the medicinal chemistry of heterocycles integrated with a pyrazolo[1,5-a]pyrimidine scaffold” (RSC Med Chem, 2022).
